Reference: patent publication US11096939B2, “KRAS G12C inhibitors and methods of using the same” (Amgen Inc., priority 2018, dated 2021)
Like-named read-outs stand apart in the source and are kept apart here.

Experiments:
[1] = target: GDP-bound KRAS protein (aa 1-169), containing both G12C and C118A amino acid substitutions (Homo sapiens, UniProt P01116, C118A/G12C); assay: Coupled nucleotide exchange assay (SOS-mediated, AlphaScreen); format: biochemical; conditions: compound pre-incubation either 5 min or 2 hours (not stated per value); SOS and GTP added, cRAF AlphaScreen readout
Method: Coupled Nucleotide Exchange Assay:
Following compound pre-incubation, purified SOS protein (aa 564-1049) and GTP (Roche 10106399001) were added to the assay wells and incubated for an additional 30 min (for 5 min compound pre-incubation) or 1 hour (for 2 hour compound pre-incubation). To determine the extent of inhibition of SOS-mediated nucleotide exchange, purified GST-tagged cRAF (aa 1-149), nickel chelate AlphaLISA acceptor beads (PerkinElmer AL108R), and AlphaScreen glutathione donor beads (PerkinElmer 6765302) were added to the assay wells and incubated for 10 minutes. The assay plates were then read on a PerkinElmer EnVision Multilabel Reader, using AlphaScreen® technology, and data were analyzed using a 4-parameter logistic model to calculate IC50 values.

[2] = test system: Phosphorylation of ERK1/2 in MIA PaCa-2 cells; assay: Phospho-ERK1/2 MSD assay; format: cell-based; conditions: compound 2 or 4 hours, 10 ng/mL EGF for 10 min, read-out: p-ERK IC50 (MIA-PaCa-2)
Method: Phospho-ERK1/2 MSD Assay:
MIA PaCa-2 (ATCC® CRL-1420™)-cells were cultured in RPMI 1640 Medium (ThermoFisher Scientific 11875093) containing 10% fetal bovine serum (ThermoFisher Scientific 16000044) and 1× penicillin-streptomycin-glutamine (ThermoFisher Scientific 10378016). Sixteen hours prior to compound treatment, MIA PaCa-2 cells were seeded in 96-well cell culture plates at a density of 25,000 cells/well and incubated at 37° C., 5% CO2. A compound dose-response titration was diluted in growth media, added to appropriate wells of a cell culture plate, and then incubated at 37° C., 5% CO2 for 2 or 4 hours. Following compound treatment, cells were stimulated with 10 ng/mL EGF (Roche 11376454001) for 10 min, washed with ice-cold Dulbecco's phosphate-buffered saline, no Ca^2+ or Mg^2+ (ThermoFisher Scientific 14190144), and then lysed in RIPA buffer (50 mM Tris-HC pH 7.5, 1% Igepal, 0.5% sodium deoxycholate, 150 mM NaCl, and 0.5% sodium dodecyl sulfate) containing protease inhibitors (Roche 4693132001) and phosphatase inhibitors (Roche 4906837001). Phosphorylation of ERK1/2 in compound-treated lysates was assayed using Phospho-ERK1/2 Whole Cell Lysate kits (Meso Scale Discovery KI51DWD) according to the manufacturer's protocol. Assay plates were read on a Meso Scale Discovery Sector Imager 6000, and data were analyzed using a 4-parameter logistic model to calculate IC50 values.

[3] = Homo sapiens, MIA PaCa-2, MIA PaCa-2 cells

GDP-bound KRAS protein (aa 1-169), containing both G12C and C118A amino acid substitutions, sequence (P01116 1-169 isoform P01116-2 G12C/C118A): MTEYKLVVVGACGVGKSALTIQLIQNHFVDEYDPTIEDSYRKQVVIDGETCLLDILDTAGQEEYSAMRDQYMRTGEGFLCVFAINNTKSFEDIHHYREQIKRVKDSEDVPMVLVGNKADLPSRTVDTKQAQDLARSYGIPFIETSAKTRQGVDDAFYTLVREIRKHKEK

| SMILES | Coupled Exchange IC50 [1] | IC50 ([2]; MIA PaCa-2 cells) | IC50 [2, 3] |
| --- | --- | --- | --- |
| C=CC(=O)N1C[C@H](C)N(C2=NC(=O)C(C)(c3ccccc3)c3nc(-c4ccccc4F)c(Cl)cc32)C[C@H]1C (single isomer, unassigned) [Example 1-5-2] | 14.9 µM | – | – |
| C=CC(=O)N1C[C@H](C)N(C2=NC(=O)C(C)(CC(C)C)c3nc(-c4ccccc4F)c(Cl)cc32)C[C@H]1C (single isomer, unassigned) [Example 1-8-2] | 4.95 µM | 1.62 µM | – |
| C=CC(=O)N1C[C@H](C)N(C2=NC(=O)C(C)(CC(C)C)c3nc(-c4ccccc4F)c(Cl)cc32)C[C@H]1C (stereo partly drawn) [Example 1-8, 5-((2S,5R)-4-Acryloyl-2,5-dimethylpiperazin-1-yl)-3-chloro-2-(2-fluorophenyl)-8-isobutyl-8-methyl-1,6-naphthyridin-7(8H)-one] | 5.78 µM | 3.69 µM | – |
| C=CC(=O)N1C[C@H](C)N(C2=NC(=O)C(C)(CC(C)C)c3nc(-c4ccccc4F)c(Cl)cc32)C[C@H]1C (single isomer, unassigned) [Example 1-8-1] | 53.8 µM | – | – |
| C=CC(=O)N1CCN(C2=NC(=O)C(C)(CC(C)C)c3nc(-c4ccccc4F)c(Cl)cc32)[C@@H](C)C1 (single isomer, unassigned) [Example 3-1-2] | 13.3 µM | – | 1.77 µM |
| C=CC(=O)N1C[C@H](C)N(C2=NC(=O)C3(Cc4ccccc4C3)c3nc(-c4ccccc4F)c(Cl)cc32)C[C@H]1C [Example 2-2, 5′-((2S,5R)-4-acryloyl-2,5-dimethylpiperazin-1-yl)-3′-chloro-2′-(2-fluorophenyl)-1,3-dihydro-7′H-spiro[indene-2,8′-[1,6]naphthyridin]-7′-one] | 3.37 µM | – | 1.77 µM |
| C=CC(=O)N1CCN(C2=NC(=O)C(C)(CC(C)C)c3nc(-c4ccccc4F)c(Cl)cc32)[C@@H](C)C1 (single isomer, unassigned) [Example 3-1-1] | 94.7 µM | – | – |
| C=CC(=O)N1C[C@H](C)N(C2=NC(=O)C(C)(C3CCCC3)c3nc(-c4ccccc4F)c(Cl)cc32)C[C@H]1C (single isomer, unassigned) [Example 1-1-2] | 1.43 µM | – | – |
| C=CC(=O)N1C[C@H](C)N(C2=NC(=O)C3(CCc4ccccc43)c3nc(-c4ccccc4F)c(Cl)cc32)C[C@H]1C (single isomer, unassigned) [Example 1-7-1] | 5.28 µM | 1.72 µM | – |
| C=CC(=O)N1C[C@H](C)N(C2=NC(=O)C(C)(C3CCCC3)c3nc(-c4ccccc4F)c(Cl)cc32)C[C@H]1C (single isomer, unassigned) [Example 1-1-1] | 250 µM | – | – |
| C=CC(=O)N1C[C@H](C)N(C2=NC(=O)C(C)(C3CCC3)c3nc(-c4ccccc4F)c(Cl)cc32)C[C@H]1C (single isomer, unassigned) [Example 1-3-2] | 0.55 µM | – | 0.35 µM |
| C=CC(=O)N1C[C@H](C)N(C2=NC(=O)C(C)(C3CCC3)c3nc(-c4ccccc4F)c(Cl)cc32)C[C@H]1C (stereo partly drawn) [Example 1-3, 5-((2S,5R)-4-Acryloyl-2,5-dimethylpiperazin-1-yl)-3-chloro-8-cyclobutyl-2-(2-fluorophenyl)-8-methyl-1,6-naphthyridin-7(8H)-one] | 1.69 µM | – | 0.95 µM |
| C=CC(=O)N1C[C@H](C)N(C2=NC(=O)C(C)(C3CC3)c3nc(-c4ccccc4F)c(Cl)cc32)C[C@H]1C (single isomer, unassigned) [Example 1-2-2] | >250 µM | – | – |
| C=CC(=O)N1C[C@H](C)N(C2=NC(=O)C3(CCc4ccccc43)c3nc(-c4ccccc4F)c(Cl)cc32)C[C@H]1C (stereo partly drawn) [Example 1-7, 5′-((2S,5R)-4-Acryloyl-2,5-dimethylpiperazin-1-yl)-3′-chloro-2′-(2-fluorophenyl)-2,3-dihdyro-7′H-spiro[indene-1,8′-[1,6]naphthyridin]-7′-one] | 8.04 µM | – | 1.76 µM |
| C=CC(=O)N1C[C@H](C)N(C2=NC(=O)C(C)(C3CCC3)c3nc(-c4ccccc4F)c(Cl)cc32)C[C@H]1C (single isomer, unassigned) [Example 1-3-1] | 201 µM | – | – |
| C=CC(=O)N1C[C@H](C)N(C2=NC(=O)C3(CCCCC3)c3nc(-c4ccccc4F)c(Cl)cc32)C[C@H]1C [Example 1-6, 5′-((2S,5R)-4-Acryloyl-2,5-dimethylpiperazin-1-yl)-3′-chloro-2′-(2-fluorophenyl)-7′H-spiro[cyclohexane-1,8′-[16,]naphthyridin]-7′-one] | 7.28 µM | – | 3.31 µM |
| C=CC(=O)N1C[C@H](C)N(C2=NC(=O)C(C)(CC)c3nc(-c4ccccc4F)c(Cl)cc32)C[C@H]1C (single isomer, unassigned) [Example 1-4-1] | 11.2 µM | – | 2.74 µM |
| C=CC(=O)N1C[C@H](C)N(C2=NC(=O)C(C)(C3CCCC3)c3nc(-c4ccccc4F)c(Cl)cc32)C[C@H]1C (mixture of isomers) [Example 1-1, 5-((2S,5R)-4-Acryloyl-2,5-dimethylpiperazin-1-yl)-3-chloro-8-cyclopentyl-2-(2-fluorophenyl)-8-methyl-1,6-naphthyridin-7(8H)-one] | 2.68 µM | – | – |
| C=CC(=O)N1C[C@H](C)N(C2=NC(=O)C(C)(C3CC3)c3nc(-c4ccccc4F)c(Cl)cc32)C[C@H]1C (stereo partly drawn) [Example 1-2, 5-((2S,5R)-4-Acryloyl-2,5-dimethylpiperazin-1-yl)-3-chloro-8-cyclopropyl-2-(2-fluorophenyl)-8-methyl-1,6-naphthyridin-7(8H)-one] | 20.1 µM | – | 1.63 µM |
| C=CC(=O)N1C[C@H](C)N(C2=NC(=O)C(C)(C3CC3)c3nc(-c4ccccc4F)c(Cl)cc32)C[C@H]1C (single isomer, unassigned) [Example 1-2-1] | 5.15 µM | 1.45 µM | – |
| C=CC(=O)N1C[C@H](C)N(C2=NC(=O)C(C)(c3ccccc3)c3nc(-c4ccccc4F)c(Cl)cc32)C[C@H]1C (stereo partly drawn) [Example 1-5, 5-((2S,5R)-4-Acryloyl-2,5-dimethylpiperazin-1-yl)-3-chloro-2-(2-fluorophenyl)-8-methyl-8-phenyl-1,6-naphthyridin-7(8H)-one] | 25.9 µM | – | – |
| C=CC(=O)N1CCN(C2=NC(=O)C(C)(CC(C)C)c3nc(-c4ccccc4F)c(Cl)cc32)[C@@H](C)C1 (stereo partly drawn) [Example 3-1, 5-((S)-4-Acryloyl-2-methylpiperazin-1-yl)-3-chloro-2-(2-fluorophenyl)-8-isobutyl-8-methyl-1,6-naphthyridin-7(8H)-one] | 14.3 µM | – | – |
| C=CC(=O)N1C[C@H](C)N(C2=NC(=O)C(C3CC3)(C3CC3)c3nc(-c4ccccc4F)c(Cl)cc32)C[C@H]1C [Example 2-1, 5-((2S,5R)-4-Acryloyl-2,5-dimethylpiperazin-1-yl)-3-chloro-8,8-dicyclopropyl-2-(2-fluorophenyl)-1,6-naphthyridin-7(8H)-one] | 18.6 µM | – | – |
| C=CC(=O)N1C[C@H](C)N(C2=NC(=O)C(C)(CC)c3nc(-c4ccccc4F)c(Cl)cc32)C[C@H]1C (stereo partly drawn) [Example 1-4, 5-((2S,5R)-4-Acryloyl-2,5-dimethylpiperazin-1-yl)-3-chloro-8-ethyl-2-(2-fluorophenyl)-8-methyl-1,6-naphthyridin-7(8H)-one] | 19.3 µM | – | – |
| C=CC(=O)N1C[C@H](C)N(C2=NC(=O)C3(CCc4ccccc43)c3nc(-c4ccccc4F)c(Cl)cc32)C[C@H]1C (single isomer, unassigned) [Example 1-7-2] | 7.74 µM | 3.26 µM | – |
| C=CC(=O)N1C[C@H](C)N(C2=NC(=O)C(C)(c3ccccc3)c3nc(-c4ccccc4F)c(Cl)cc32)C[C@H]1C (single isomer, unassigned) [Example 1-5-1] | 186 µM | – | – |
| C=CC(=O)N1C[C@H](C)N(C2=NC(=O)C(C)(CC)c3nc(-c4ccccc4F)c(Cl)cc32)C[C@H]1C (single isomer, unassigned) [Example 1-4-2] | 139 µM | – | – |
